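Five concentrations, 48 hours, 96-well plates. GI50 marks 50% less growth.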 Calls of active or inactive are those of the source. No stated cut-off is given here; in the data, active = GI50 up to about 1.1 µM and inactive = higher.
Key:
Experiment in all cases: DTP human tumour cell line panel, 48 h
PC-3 = test system: PC-3
NCI-H23 = test system: NCI-H23
SF-268 = test system: SF-268
BT-549 = test system: BT-549
SW-620 = test system: SW-620
U-251 = test system: U-251
NCI-H522 = test system: NCI-H522
SNB-75 = test system: SNB-75
SK-OV-3 = test system: SK-OV-3
SF-295 = test system: SF-295
HOP-92 = test system: HOP-92
HCT-15 = test system: HCT-15
MOLT-4 = test system: MOLT-4
TK-10 = test system: TK-10
OVCAR-3 = test system: OVCAR-3
HT-29 = test system: HT-29
SNB-19 = test system: SNB-19
OVCAR-4 = test system: OVCAR-4
MDA-MB-231 = test system: MDA-MB-231
SR = test system: SR

SMILES	GI50 (PC-3)	GI50 (NCI-H23)	GI50 (SF-268)	GI50 (BT-549)	GI50 (SW-620)	GI50 (U-251)	GI50 (NCI-H522)	GI50 (SNB-75)	GI50 (SK-OV-3)	GI50 (SF-295)	GI50 (HOP-92)	GI50 (HCT-15) [µM]	GI50 (MOLT-4)	GI50 (TK-10)	GI50 (OVCAR-3)	GI50 (HT-29)	GI50 (SNB-19)	GI50 (OVCAR-4)	GI50 (MDA-MB-231)	GI50 (SR)
O=C1c2cc([N+](=O)[O-])cc3cc([N+](=O)[O-])cc(c23)C(=O)N1CCCNCCNCCCN1C(=O)c2cc([N+](=O)[O-])cc3cc([N+](=O)[O-])cc(c23)C1=O	0.376 µM (active)	0.0931 µM (active)	0.0222 µM (active)	1.7 µM (inactive)	0.073 µM (active)	0.0395 µM (active)	0.0551 µM (active)	0.308 µM (active)	1.79 µM (inactive)	0.0462 µM (active)	0.337 µM (active)	0.117	< 0.01 µM (active)	1.19 µM (inactive)	0.0897 µM (active)	0.0201 µM (active)	0.326 µM (active)	0.178 µM (active)	0.414 µM (active)	–
Clc1ccc(Cl)c(SCCCN2CCNCC2)c1	14.6 µM (inactive)	19.4 µM (inactive)	16.6 µM (inactive)	17.1 µM (inactive)	22.3 µM (inactive)	16.4 µM (inactive)	16.3 µM (inactive)	13.4 µM (inactive)	15.1 µM (inactive)	17.8 µM (inactive)	15 µM (inactive)	18.7	17.1 µM (inactive)	16.5 µM (inactive)	19.2 µM (inactive)	14.6 µM (inactive)	16.9 µM (inactive)	20.6 µM (inactive)	15 µM (inactive)	–
O=C(CCCc1ccccn1)c1ccccc1	> 100 µM (inactive)	> 100 µM (inactive)	> 100 µM (inactive)	> 100 µM (inactive)	> 100 µM (inactive)	> 100 µM (inactive)	> 100 µM (inactive)	> 100 µM (inactive)	> 100 µM (inactive)	> 100 µM (inactive)	> 100 µM (inactive)	> 100	> 100 µM (inactive)	> 100 µM (inactive)	> 100 µM (inactive)	> 100 µM (inactive)	> 100 µM (inactive)	> 100 µM (inactive)	> 100 µM (inactive)	–
CCNCC(O)c1ccc(N)c([N+](=O)[O-])c1 (centres undefined)	> 100 µM (inactive)	> 100 µM (inactive)	> 100 µM (inactive)	> 100 µM (inactive)	> 100 µM (inactive)	> 100 µM (inactive)	> 100 µM (inactive)	> 100 µM (inactive)	> 100 µM (inactive)	> 100 µM (inactive)	–	> 100	> 100 µM (inactive)	> 100 µM (inactive)	> 100 µM (inactive)	> 100 µM (inactive)	> 100 µM (inactive)	21.4 µM (inactive)	> 100 µM (inactive)	> 100 µM (inactive)
CNc1nc(N)c(N=O)c(Nc2ccc(Br)cc2)n1	> 100 µM (inactive)	> 100 µM (inactive)	72.9 µM (inactive)	> 100 µM (inactive)	> 100 µM (inactive)	61.8 µM (inactive)	> 100 µM (inactive)	68.5 µM (inactive)	–	> 100 µM (inactive)	–	> 100	68.4 µM (inactive)	> 100 µM (inactive)	> 100 µM (inactive)	> 100 µM (inactive)	> 100 µM (inactive)	–	> 100 µM (inactive)	> 100 µM (inactive)
Cc1ccc(OCC2OC(n3cnc4c(N(C)C)nc(Br)nc43)CC2Oc2ccc(C)cc2)cc1 (centres undefined)	> 100 µM (inactive)	> 100 µM (inactive)	> 100 µM (inactive)	> 100 µM (inactive)	> 100 µM (inactive)	> 100 µM (inactive)	> 100 µM (inactive)	–	> 100 µM (inactive)	> 100 µM (inactive)	> 100 µM (inactive)	> 100	–	> 100 µM (inactive)	> 100 µM (inactive)	> 100 µM (inactive)	> 100 µM (inactive)	> 100 µM (inactive)	> 100 µM (inactive)	–
Cc1c(Cl)cccc1/N=N/C(=O)NNc1cccc(Cl)c1C	13.3 µM (inactive)	16.7 µM (inactive)	16.9 µM (inactive)	14.1 µM (inactive)	17.1 µM (inactive)	16.2 µM (inactive)	23.1 µM (inactive)	18 µM (inactive)	–	–	–	14.3	13.3 µM (inactive)	15.8 µM (inactive)	17.6 µM (inactive)	20.4 µM (inactive)	17.9 µM (inactive)	12 µM (inactive)	17.8 µM (inactive)	21.3 µM (inactive)
Cc1ccc(-c2c(C#N)c(-c3ccc(Cl)cc3)c(C#N)c(=O)n2NS(=O)(=O)c2ccccc2)cc1	29.9 µM (inactive)	–	67 µM (inactive)	34.4 µM (inactive)	> 100 µM (inactive)	74.8 µM (inactive)	38.1 µM (inactive)	47.5 µM (inactive)	> 100 µM (inactive)	60.8 µM (inactive)	25.2 µM (inactive)	51.6	55.2 µM (inactive)	74.3 µM (inactive)	–	> 100 µM (inactive)	80.7 µM (inactive)	37.2 µM (inactive)	> 100 µM (inactive)	–
COc1ccc(Nc2nc3ccccc3n3cccc23)cc1OC	11.7 µM (inactive)	14.8 µM (inactive)	21.9 µM (inactive)	18.5 µM (inactive)	16.2 µM (inactive)	16.9 µM (inactive)	16 µM (inactive)	–	27 µM (inactive)	13.2 µM (inactive)	34.4 µM (inactive)	13.6	9.98 µM (inactive)	16.5 µM (inactive)	19.1 µM (inactive)	7.74 µM (inactive)	33.7 µM (inactive)	–	15.3 µM (inactive)	12.8 µM (inactive)
NCCCCN(CCCN)Cc1ccc2ccccc2c1	–	25.3 µM (inactive)	12.6 µM (inactive)	90.4 µM (inactive)	> 100 µM (inactive)	59 µM (inactive)	13.5 µM (inactive)	2.94 µM (inactive)	96.4 µM (inactive)	44 µM (inactive)	29 µM (inactive)	> 100	34.8 µM (inactive)	> 100 µM (inactive)	–	23.3 µM (inactive)	12.9 µM (inactive)	39.4 µM (inactive)	32.4 µM (inactive)	–
CSc1ccc(/C=C2\N=C(c3ccccc3)N(NC(=O)c3c(Cl)c(Cl)c(Cl)c(Cl)c3-c3nc4ccccc4[nH]3)C2=O)cc1	36.6 µM (inactive)	24.7 µM (inactive)	36.9 µM (inactive)	25.3 µM (inactive)	29.9 µM (inactive)	–	28.4 µM (inactive)	8.3 µM (inactive)	5.48 µM (inactive)	4.49 µM (inactive)	17.5 µM (inactive)	15.1	20.7 µM (inactive)	–	26.6 µM (inactive)	36.2 µM (inactive)	48.5 µM (inactive)	–	–	2.22 µM (inactive)
O=C1c2ccccc2C(=O)c2c1ccc(C1C(=O)c3ccccc3C1=O)c2-c1c(C2C(=O)c3ccccc3C2=O)ccc2c1C(=O)c1ccccc1C2=O	> 100 µM (inactive)	–	> 100 µM (inactive)	> 100 µM (inactive)	15.3 µM (inactive)	> 100 µM (inactive)	> 100 µM (inactive)	> 100 µM (inactive)	> 100 µM (inactive)	> 100 µM (inactive)	> 100 µM (inactive)	> 100	19 µM (inactive)	> 100 µM (inactive)	> 100 µM (inactive)	> 100 µM (inactive)	> 100 µM (inactive)	> 100 µM (inactive)	47.3 µM (inactive)	–
Cc1cn(CC(=S)NCCc2c[nH]c3ccccc23)c(=O)[nH]c1=O	77.1 µM (inactive)	59.3 µM (inactive)	> 100 µM (inactive)	> 100 µM (inactive)	> 100 µM (inactive)	> 100 µM (inactive)	–	–	> 100 µM (inactive)	–	> 100 µM (inactive)	> 100	12.8 µM (inactive)	–	> 100 µM (inactive)	31.4 µM (inactive)	> 100 µM (inactive)	48.8 µM (inactive)	> 100 µM (inactive)	28.1 µM (inactive)
CCOC(=O)/C(C(=O)Nc1cccc(Cl)c1)=C(/N)N1CCCC1	> 100 µM (inactive)	> 100 µM (inactive)	> 100 µM (inactive)	> 100 µM (inactive)	> 100 µM (inactive)	> 100 µM (inactive)	> 100 µM (inactive)	> 100 µM (inactive)	> 100 µM (inactive)	> 100 µM (inactive)	–	> 100	> 100 µM (inactive)	> 100 µM (inactive)	> 100 µM (inactive)	> 100 µM (inactive)	> 100 µM (inactive)	> 100 µM (inactive)	> 100 µM (inactive)	–
CC(Nc1cccc(Cl)c1)c1ccncc1 (centres undefined)	30.5 µM (inactive)	71.3 µM (inactive)	> 100 µM (inactive)	> 100 µM (inactive)	> 100 µM (inactive)	> 100 µM (inactive)	83.6 µM (inactive)	> 100 µM (inactive)	15.8 µM (inactive)	> 100 µM (inactive)	73.1 µM (inactive)	> 100	31 µM (inactive)	> 100 µM (inactive)	49.4 µM (inactive)	> 100 µM (inactive)	> 100 µM (inactive)	> 100 µM (inactive)	> 100 µM (inactive)	–
Cc1ccc(-n2c(O)c(C#N)c3[nH]nc(N)c3c2=O)cc1	> 100 µM (inactive)	> 100 µM (inactive)	> 100 µM (inactive)	> 100 µM (inactive)	> 100 µM (inactive)	> 100 µM (inactive)	> 100 µM (inactive)	> 100 µM (inactive)	> 100 µM (inactive)	–	–	> 100	> 100 µM (inactive)	> 100 µM (inactive)	> 100 µM (inactive)	> 100 µM (inactive)	> 100 µM (inactive)	> 100 µM (inactive)	> 100 µM (inactive)	> 100 µM (inactive)

From ChEMBL document CHEMBL1201862, “PubChem BioAssay data set” (2004)
